In US9593108B2, “Compounds and methods for antiviral treatment” (PTC Therapeutics, Inc., priority 2009, dated 2017):

Tests used:
[1] = test system: HCV replicon RNA (GenBank Accession No. AJ242654); assay: HCV Replicon Assay (replicon RNA reduction and/or Fluc reporter signal); type: cell-based, Hepatitis C virus; conditions: Hepatitis C virus, 72 h, replicon-containing cells cultured with test compound for up to 3 days
Method in brief: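 IC50 values mostly reflect the drop in replicon RNA, though Fluc reporter signal may also be used. Compound incubated with cells carrying the bicistronic replicon for as long as 3 days; interferon served as positive control.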

SMILES: CC(C)(C)NS(=O)(=O)c1ccc(-c2c(C(N)=O)c3cc(C(F)(F)F)cnc3n2C2CCC2)cc1 [Cpd 403, 2-[4-(tert-butylsulfamoyl)phenyl]-1-cyclobutyl-5-(trifluoromethyl)-1H-pyrrolo[2,3-b]pyridine-3-carboxamide]
- IC50 [1]: < 500 nM
- melting point: 255 to 257 °C

SMILES: CC(C)(C)S(=O)(=O)Nc1ccc(-c2c(C(N)=O)c3cc(C(F)(F)F)cnc3n2C2CCC2)cc1 [Cpd 404, 2-{4-[(tert-butylsulfonyl)amino]phenyl}-1-cyclobutyl-5-(trifluoromethyl)-1H-pyrrolo[2,3-b]pyridine-3-carboxamide]
- IC50 [1]: < 500 nM
- melting point: 257 to 259 °C

SMILES: Cc1nc2c(cc1C(F)(F)F)c(C#N)c(-c1ccc(S(=O)(=O)N[C@@H](C)C(F)(F)F)cn1)n2C1CCC1 [Cpd 405, 6-[3-cyano-1-cyclobutyl-6-methyl-5-(trifluoromethyl)-1H-pyrrolo[2,3-b]pyridin-2-yl]-N-[(2S)-1,1,1-trifluoropropan-2-yl]pyridine-3-sulfonamide]
- IC50 [1]: < 500 nM
- melting point: 201 to 203 °C

SMILES: CC(C)(NS(=O)(=O)c1ccc(-c2c(C(N)=O)c3cc(C(F)(F)F)cnc3n2C2CCCC2)nc1)C(F)(F)F [Cpd 406, 1-cyclopentyl-5-(trifluoromethyl)-2-{5-[(1,1,1-trifluoro-2-methylpropan-2-yl)sulfamoyl]pyridin-2-yl}-1H-pyrrolo[2,3-b]pyridine-3-carboxamide]
- IC50 [1]: < 500 nM
- melting point: 244 to 246 °C

SMILES: NC(=O)c1c(-c2ccc(S(=O)(=O)NC3(C(F)(F)F)CC3)cn2)n(C2CCCC2)c2ncc(C(F)(F)F)cc12 [Cpd 407, 1-cyclopentyl-5-(trifluoromethyl)-2-(5-{[1-(trifluoromethyl)cyclopropyl]sulfamoyl}pyridin-2-yl)-1H-pyrrolo[2,3-b]pyridine-3-carboxamide]
- IC50 [1]: < 500 nM
- melting point: 262 to 264 °C

SMILES: NC(=O)c1c(-c2ccc(S(=O)(=O)NC3(C(F)(F)F)CC3)cc2)n(C2CCCC2)c2ncc(C(F)(F)F)cc12 [Cpd 408, 1-cyclopentyl-5-(trifluoromethyl)-2-(4-{[1-(trifluoromethyl)cyclopropyl]sulfamoyl}phenyl)-1H-pyrrolo[2,3-b]pyridine-3-carboxamide]
- IC50 [1]: < 500 nM
- melting point: 277 to 279 °C

SMILES: C[C@H](NS(=O)(=O)c1ccc(-c2c(C(N)=O)c3cc(C(F)(F)F)cnc3n2C2CCCC2)nc1)C(F)(F)F [Cpd 409, 1-cyclopentyl-5-(trifluoromethyl)-2-(5-{[(2S)-1,1,1-trifluoropropan-2-yl]sulfamoyl}pyridin-2-yl)-1H-pyrrolo[2,3-b]pyridine-3-carboxamide]
- IC50 [1]: < 500 nM
- melting point: 261 to 263 °C

SMILES: CCc1cnc2c(c1)c(C#N)c(-c1ccc(S(=O)(=O)N[C@@H](C)C(F)(F)F)cn1)n2-c1cnccn1 [Cpd 411, 6-[3-cyano-5-ethyl-1-(pyrazin-2-yl)-1H-pyrrolo[2,3-b]pyridin-2-yl]-N-[(2S)-1,1,1-trifluoropropan-2-yl]pyridine-3-sulfonamide]
- IC50 [1]: < 500 nM
- melting point: 195 to 200 °C

SMILES: CCc1cnc2c(c1)c(C#N)c(-c1ccc(S(=O)(=O)N[C@@H](C)C(F)(F)F)cn1)n2-c1cc(F)ccn1 [Cpd 412, 6-[3-cyano-5-ethyl-1-(4-fluoropyridin-2-yl)-1H-pyrrolo[2,3-b]pyridin-2-yl]-N-[(2S)-1,1,1-trifluoropropan-2-yl]pyridine-3-sulfonamide]
- IC50 [1]: < 500 nM
- melting point: 201 to 205 °C

SMILES: CCc1cnc2c(c1)c(C#N)c(-c1ccc(S(=O)(=O)N[C@@H](C)C(F)(F)F)cn1)n2-c1ccccc1 [Cpd 413, 6-(3-cyano-5-ethyl-1-phenyl-1H-pyrrolo[2,3-b]pyridin-2-yl)-N-[(2S)-1,1,1-trifluoropropan-2-yl]pyridine-3-sulfonamide]
- IC50 [1]: < 500 nM
- melting point: 135 to 140 °C

SMILES: CCc1cnc2c(c1)c(C#N)c(-c1ccc(S(=O)(=O)N[C@@H](C)C(F)(F)F)cn1)n2-c1ccccn1 [Cpd 414, 6-[3-cyano-5-ethyl-1-(pyridin-2-yl)-1H-pyrrolo[2,3-b]pyridin-2-yl]-N-[(2S)-1,1,1-trifluoropropan-2-yl]pyridine-3-sulfonamide]
- IC50 [1]: < 500 nM
- melting point: 190 to 195 °C

SMILES: C[C@H](NS(=O)(=O)c1ccc(-c2c(C#N)c3cc(C(F)(F)F)cnc3n2C2CCCCC2)nc1)C(F)(F)F [Cpd 415, 6-[3-cyano-1-cyclohexyl-5-(trifluoromethyl)-1H-pyrrolo[2,3-b]pyridin-2-yl]-N-[(2S)-1,1,1-trifluoropropan-2-yl]pyridine-3-sulfonamide]
- IC50 [1]: < 500 nM
- melting point: 204 to 206 °C

SMILES: C[C@H](NS(=O)(=O)c1ccc(-c2c(C#N)c3cc(C(F)(F)F)cnc3n2C2CCCCC2)cc1)C(F)(F)F [Cpd 416, 4-[3-cyano-1-cyclohexyl-5-(trifluoromethyl)-1H-pyrrolo[2,3-b]pyridin-2-yl]-N-[(2S)-1,1,1-trifluoropropan-2-yl]benzenesulfonamide]
- IC50 [1]: < 500 nM
- melting point: 190 to 192 °C

SMILES: CC(C)(NS(=O)(=O)c1ccc(-c2c(C#N)c3cc(C(F)(F)F)cnc3n2C2CCCCC2)nc1)C(F)(F)F [Cpd 417, 6-[3-cyano-1-cyclohexyl-5-(trifluoromethyl)-1H-pyrrolo[2,3-b]pyridin-2-yl]-N-(1,1,1-trifluoro-2-methylpropan-2-yl)pyridine-3-sulfonamide]
- IC50 [1]: < 500 nM
- melting point: 177 to 179 °C

SMILES: CC(C)(NS(=O)(=O)c1ccc(-c2c(C#N)c3cc(C(F)(F)F)cnc3n2C2CCCCC2)cc1)C(F)(F)F [Cpd 418, 4-[3-cyano-1-cyclohexyl-5-(trifluoromethyl)-1H-pyrrolo[2,3-b]pyridin-2-yl]-N-(1,1,1-trifluoro-2-methylpropan-2-yl)benzenesulfonamide]
- IC50 [1]: < 500 nM
- melting point: 203 to 205 °C

SMILES: N#Cc1c(-c2ccc(S(=O)(=O)NC3(C(F)(F)F)CC3)cn2)n(C2CCCCC2)c2ncc(C(F)(F)F)cc12 [Cpd 419, 6-[3-cyano-1-cyclohexyl-5-(trifluoromethyl)-1H-pyrrolo[2,3-b]pyridin-2-yl]-N-[1-(trifluoromethyl)cyclopropyl]pyridine-3-sulfonamide]
- IC50 [1]: < 500 nM
- melting point: 192 to 193 °C

SMILES: N#Cc1c(-c2ccc(S(=O)(=O)NC3(C(F)(F)F)CC3)cc2)n(C2CCCCC2)c2ncc(C(F)(F)F)cc12 [Cpd 420, 4-[3-cyano-1-cyclohexyl-5-(trifluoromethyl)-1H-pyrrolo[2,3-b]pyridin-2-yl]-N-[1-(trifluoromethyl)cyclopropyl]benzenesulfonamide]
- IC50 [1]: < 500 nM
- melting point: 195 to 197 °C

SMILES: CC1(NS(=O)(=O)c2ccc(-c3c(C#N)c4cc(C(F)(F)F)cnc4n3C3CCCCC3)cc2)CC1 [Cpd 421, 4-[3-cyano-1-cyclohexyl-5-(trifluoromethyl)-1H-pyrrolo[2,3-b]pyridin-2-yl]-N-(1-methylcyclopropyl)benzenesulfonamide]
- IC50 [1]: < 500 nM
- melting point: 173 to 175 °C

SMILES: CC(C)(C)NS(=O)(=O)c1ccc(-c2c(C#N)c3cc(C(F)(F)F)cnc3n2C2CCCCC2)cc1 [Cpd 422, N-tert-butyl-4-[3-cyano-1-cyclohexyl-5-(trifluoromethyl)-1H-pyrrolo[2,3-b]pyridin-2-yl]benzenesulfonamide]
- IC50 [1]: < 500 nM
- melting point: 176 to 178 °C

SMILES: C[C@@H](NS(=O)(=O)c1ccc(-c2c(C#N)c3cc(C(F)(F)F)cnc3n2C2CCCCC2)cc1)C(F)(F)F [Cpd 423, 4-[3-cyano-1-cyclohexyl-5-(trifluoromethyl)-1H-pyrrolo[2,3-b]pyridin-2-yl]-N-[(2R)-1,1,1-trifluoropropan-2-yl]benzenesulfonamide]
- IC50 [1]: < 500 nM
- melting point: 185 to 187 °C

SMILES: CC(C)(C)S(=O)(=O)Nc1ccc(-c2c(C#N)c3cc(C(F)(F)F)cnc3n2C2CCCCC2)cc1 [Cpd 424, N-{4-[3-cyano-1-cyclohexyl-5-(trifluoromethyl)-1H-pyrrolo[2,3-b]pyridin-2-yl]phenyl}-2-methylpropane-2-sulfonamide]
- IC50 [1]: < 500 nM
- melting point: 245 to 247 °C

SMILES: CC(C)S(=O)(=O)Nc1ccc(-c2c(C#N)c3cc(C(F)(F)F)cnc3n2C2CCCCC2)cc1 [Cpd 425, N-{4-[3-cyano-1-cyclohexyl-5-(trifluoromethyl)-1H-pyrrolo[2,3-b]pyridin-2-yl]phenyl}propane-2-sulfonamide]
- IC50 [1]: < 500 nM
- melting point: 228 to 230 °C

SMILES: CC1(S(=O)(=O)Nc2ccc(-c3c(C#N)c4cc(C(F)(F)F)cnc4n3C3CCCCC3)cc2)CC1 [Cpd 426, N-{4-[3-cyano-1-cyclohexyl-5-(trifluoromethyl)-1H-pyrrolo[2,3-b]pyridin-2-yl]phenyl}-1-methylcyclopropanesulfonamide]
- IC50 [1]: < 500 nM
- melting point: 255 to 256 °C

SMILES: N#Cc1c(-c2ccc(NS(=O)(=O)C3CC3)cc2)n(C2CCCCC2)c2ncc(C(F)(F)F)cc12 [Cpd 427, N-{4-[3-cyano-1-cyclohexyl-5-(trifluoromethyl)-1H-pyrrolo[2,3-b]pyridin-2-yl]phenyl}cyclopropanesulfonamide]
- IC50 [1]: < 500 nM
- melting point: 225 to 227 °C

SMILES: N#Cc1c(-c2ccc(NS(=O)(=O)C3CCC3)cc2)n(C2CCCCC2)c2ncc(C(F)(F)F)cc12 [Cpd 428, N-{4-[3-cyano-1-cyclohexyl-5-(trifluoromethyl)-1H-pyrrolo[2,3-b]pyridin-2-yl]phenyl}cyclobutanesulfonamide]
- IC50 [1]: < 500 nM
- melting point: 234 to 236 °C

SMILES: C[C@H](NS(=O)(=O)c1ccc(-c2c(C#N)c3cc(Cl)cnc3n2-c2nccs2)nc1)C(F)(F)F [Cpd 429, 6-[5-chloro-3-cyano-1-(1,3-thiazol-2-yl)-1H-pyrrolo[2,3-b]pyridin-2-yl]-N-[(2S)-1,1,1-trifluoropropan-2-yl]pyridine-3-sulfonamide]
- IC50 [1]: < 500 nM
- melting point: 181 to 183 °C
